Test results from US20120071537A1, “New Oral Formulation” (priority 1998, published 2012).

What was measured:
[1] = system: rectal afferents; assay: Single unit activity of rectal afferent fibres during barostat-controlled rectal distension in decerebrate cats; type: in vivo; settings: i.v., incremental doses from 0.15 to 1.2 mg/kg
Method: Decerebrate, anaesthesia-free cats under continuous monitoring of blood pressure are paralysed by alcuronium chloride dissolved in rheomacrodex i.v. (200 μg/kg initially and supplementary doses of 100 μg/kg, if necessary), and artificially ventilated. Single unit activity of afferent fibres are recorded in a monopolar fashion from peripheral endings of centrally cut filaments of sacral dorsal roots. Tension receptors are identified by probing of their receptive fields in the wall of the mobilised rectum. Thereafter, the response of the units to barostat-controlled rectal ramp-distension is determined. The quantitative response characteristics of the units is evaluated with respect to distension pressure and resulting rectal diameter. Alternatively, the response of the units to pressure-induced peristalsis is measured. After obtaining 2 distension profiles (5 min each) and/or 10 min of peristalsis under control conditions, a 5-HT4 receptor agonist, partial agonist or antagonist, e.g., Compound A, or vehicle is applied i.v. and the protocol is repeated. Subsequently, the activity of additional units is recorded in the presence of a 5-HT4 receptor agonist, partial agonist or antagonist, e.g., Compound A, or vehicle according to the distension/peristalsis protocol. […]

[2] = system: sensory perception of rectal distension; assay: Colonic perfusion manometry with balloon distension, sensation threshold in fasted healthy volunteers; type: in vivo; settings: 2-12 mg p.o., assessed 30 to 90 min after dosing
Method: Intraluminal pressures and reflexes in the last 60 cm of the colon of 10 fasted healthy volunteers are measured by means of perfusion manometry. Three latex balloons positioned at 50, 30 and 10 cm, allow volume stimulation. Basal values of colonic intraluminal pressures and reflexes are established. Subsequently, reflex inhibitory relaxations of the internal anal sphincter is triggered by inflating the balloons by 10 ml increments up to a maximum volume of 150 ml. During the inflation phase, two parameters are evaluated: a) the reflux threshold (volume able to induce a substantial pressure decrease of the internal anal sphincter); and b) the sensation threshold (volume able to induce a conscious defecation reflex). After the basal recordings, each subject is given a 5-HT4 receptor agonist, partial agonist or antagonist, e.g., Compound A, p.o. and 30 to 90 min later the colonic intraluminal pressure and reflexes are assessed again by the same method.

[3] = Acid sensitivity (degradation under slightly acidic conditions); type: physicochemical
Excerpt: Examples of compounds are known in the art and may be ascertained by routine experimentation.
(§1) which is referred hereinafter as Compound A, or a pharmaceutically acceptable salt form thereof, e.g., the hydrogen maleate (hereinafter “hml”) salt.

[4] = system: equine intestine; assay: Gastro-intestinal motility after colic surgery (post-operative ileus) in horses; type: in vivo; settings: i.v. or i.m., 0.01 to 10 mg/kg every 8 to 24 h
Method: 20 horses having colic syndrome are submitted to abdominal surgery. During surgery supportive therapy is applied to them. At the end of surgery, a specific 5-HT4 receptor agonist or partial agonist, e.g., Compound A, is administered i.v. or i.m., e.g. at a dose of from 0.01 to 10 mg/kg. This dose is repeated every 8 to 24 h until spontaneous defecation is observed. Gastro-intestinal motility is evaluated based e.g. on the presence or absence of gastric reflux as determined by nasogastric intubation, occurrence of borborygmi and timing of defecation after the first injection of the test compound.

[5] = Dissolution characteristics of oral tablet composition in water or USP buffers pH 6.8 and 7.5; type: physicochemical; settings: composition comprising Tegaserod
Excerpt: In a further aspect the present invention provides a pharmaceutical oral, e.g., tablet, composition comprising one of the active agents cited above, e.g., a 5-HT4 agonist, partial agonist or antagonist, e.g., Tegaserod, said composition having dissolution characteristics in water or in USP buffers pH 6.8 and 7.5 of
For example a composition according to the invention, e.g., comprising Tegaserod as the active agent, may have dissolution characteristics in water or in USP buffers pH 6.8 and 7.5 of: […]

[6] = Solubility in water; type: physicochemical; settings: at 25° C. in water
Method: By “poorly soluble” is meant an active agent having a solubility in aqueous media more than 0.001% and less than 10%, e.g., less than 1%, e.g., less than 0:1%, e.g., less than 0.05%, e.g., less than 0.02%, at room temperature, e.g., 25° C.
as §1

In the case of `CCCCCNC(=N)NN=Cc1c[nH]c2ccc(OC)cc12` [Compound A, 3-(5-methoxy-1H-indol-3-yl-methylene)-N-pentylcarbazimidamide], the “distension pressure at which the most prominent inhibition of firing occurs” value [1] is reported as 50 mmHg, the “dose giving half-maximal reduction of the firing rate of rectal afferents” value [1] is reported as “about 0.7 mg/kg” and the “sensation threshold (volume able to induce a conscious defecation reflex)” value [2] is reported as “significantly reduced”. For the same compound, the acid sensitivity [3] was “acid sensitive”, the “restoration of normal motility function of the equine intestine” value [4] was “effective in restoring normal motility function” and the “amount (percentage) dissolved” value ([5]; time 5 minutes) was 48.9 percentage. The “amount (percentage) dissolved” value ([5]; time 15 minutes) was 95.5 percentage, the “amount (percentage) dissolved” value ([5]; time 30 minutes) was 99.7 percentage and the “amount (percentage) dissolved” value ([5]; time 60 minutes) was 100 percentage. For the same compound, the solubility [6] was “about 0.02%”.
